Values of other authors as cited in patent publication US7611910B2, “Method for diagnosis of alzheimer's disease” (Intracell, LLC, priority 1998, dated 2009).

Conditions: patients treated with indomethacin

COc1ccc2c(c1)c(CC(=O)O)c(C)n2C(=O)c1ccc(Cl)cc1 [indomethacin]
progression of Alzheimer's disease: reduced progression
